In US7241581B2, “Methods of identifying compounds that modulate IL-4 receptor-mediated IgE synthesis utilizing a c-MYC protein” (Rigel Pharmaceuticals, Inc., priority 2002, dated 2007):

Tests used:
[1] = test system: IL-4 induced germline ε transcription; test: A5T4 reporter line screening of single cell clones (+Dox vs -Dox, IL-4 stimulated, GFP by FACS); format: cell-based, human; details: geometric mean GFP fluorescence +IL-4/+Dox to +IL-4/-Dox; IL-4 60 U/mL, Dox 10 ng/ml; library clone
Excerpt: Peptide BR10A1 wt was identified by screening a retroviral library of random peptide 20-mers for the ability to inhibit IL-4 induced germline ε transcription using the HBEGF2a/diphtheria dual reporter phenotypic screening system described in WO 01/31232. To construct the random library, A5T4 reporter cells (described in more detail below) were infected with an infectious retroviral library of random peptide 20-mers (prepared as described in WO 97/27213; see also WO 01/34806 at page 39, line 36 through page 40, line 19). The retroviral vector used includes a gene encoding blue fluorescent protein (BFP) fused upstream of the region encoding the random peptide via a linker region encoding an α-helical peptide linker (expression fusion product is referred to as “BFP-peptide”). Expression of the BFP-peptide product is controlled by a promoter sensitive to the tetracycline-regulated transactivator such that expression of the BFP-peptide is regulated by tetracycline (Tet) or doxycycline (Dox). See U.S. patent application Ser. No. 10/096,339, entitled “Methods and Compositions for Screening for Altered Cellular Phenotypes,” filed on Mar. 8, 2002. […]

[2] = test system: endogenous germline ε promoter; test: TAQMAN assay of endogenous germline ε promoter transcription in A5T4 cells; format: cell-based, human; details: relative expression units of +IL-4/+Dox to +IL-4/-Dox A5T4 cells; IL-4 60 U/ml, 3 days; average of 3 values
Procedure: The ability of peptide BR10A1 wt to inhibit transcription of an endogenous germline ε promoter was confirmed using a TAQMAN® assay (Roche Molecular, Alameda, Calif.). Briefly, A5T4 cells were infected with retrovirus capable of expressing peptide BR10A1 wt (prepared as described above). The cells were sorted for BFP^+ to select for infected cells. Infected cells were divided into two populations. One population was exposed to Dox (10 ng/ml). Both populations were stimulated with IL-4 (60 U/ml). After 3 days, the cells were pelleted and the pellets assayed for ε promoter transcription using a TAQMAN assay performed as described in Applied Biosystems Protocol 4310299 (available at http:www.appliedbiosystems.com). The primers and probe, which are specific for the transcription product driven by the A5T4 endogenous ε promoter, were as follows (the probe was labeled at the 5′-end with Fam and at the 3′-end with Tamra): […]

[3] = test system: endogenous germline α promoter; test: TAQMAN assay of endogenous germline α promoter transcription in ST486 cells; format: cell-based; details: ST486 cells stimulated with TGF-β 40 ng/ml; average of 3 values
Procedure: The assay was similar to that described in the immediately preceding section, except that ST486 cells (ATCC # CRL-1647) engineered to express the tetracycline-regulated transactivator were infected and the infected cells were stimulated with TGF-β (40 ng/ml; Peprotech). The primers and probe, which are specific for the transcription product driven by the ST486 endogenous α promoter, were as follows (the probe was labeled at the 5′-end with Fam and at the 3′-end with Tamra): […]

## MQRRESCITRSVEEGWGLFYLGP (peptide encoded by random oligo-BR10A1wt) [wild-type peptide from random library, expressed in cells as BFP-peptide fusion]
[1]
  Reporter Ratio: 1.26
[2]
  endogenous ε inhibition ratio: 2.18
[3]
  endogenous α inhibition ratio: 0.87
